The values below are quoted from earlier work in PMC5228037, “Discovery and Mechanistic Characterization of Selective Inhibitors of H2S-producing Enzyme: 3-Mercaptopyruvate Sulfurtransferase (3MST) Targeting Active-site Cysteine Persulfide” (Scientific Reports, 2017).

Molecules are shown by their SMILES.

One data set concerns the target 3MST. The conditions noted are these: cited from earlier work; for Inhibition constant Ki for 3MST: substrate-like inhibitors.
On the set-up of data set [1]: method as in PMID 26269587. The conditions noted are these: cited from earlier work.

Consider `CC(=O)C(=O)O` [pyruvate], for which, on 3MST, the “Inhibition constant Ki for 3MST” value was “several”.

`N[C@@H](CSS)C(=O)O` [cysteine persulfide]: the “calculated pKa” value in data set [1] is given as 4.34. As to `O=C(O)C(=O)CS` [3MP, 3-mercaptopyruvate], the Km with 3MST (substrate, read-out: Michaelis constant Km for 3MST) was 4.08 mM. With `O=C(O)CCS` [3-mercaptopropionic acid], the “Inhibition constant Ki for 3MST” value on 3MST was “several”.
